pIC50: −log10 of the molar value.
What was measured:
[1] = Cytotoxicity against human OVCAR5 cells after 24 hrs by SRB assay; format: functional; conditions: OVCAR-5, 24 h
[2] = Cytotoxicity against human OVCAR8 cells assessed as cell growth at 10^-6 M after 24 hrs by SRB assay; format: functional; conditions: OVCAR-8, 24 h, read-out: Activity
[3] = Cytotoxicity against human LOXIMVI cells assessed as cell growth at 10^-7 M after 24 hrs by SRB assay; format: functional; conditions: LOX IMVI, read-out: Activity
[4] = Cytotoxicity against human UO31 cells assessed as cell growth at 10^-4 M after 24 hrs by SRB assay; format: functional; conditions: UO-31, 24 h, read-out: Activity
[5] = Cytotoxicity against human UO31 cells assessed as cell growth at 10^-7 M after 24 hrs by SRB assay; format: functional; conditions: UO-31, 24 h, read-out: Activity
[6] = system: SK-MEL-28; experiment: Cytotoxicity against human SK-MEL-28 cells assessed as cell growth at 10^-5 M after 24 hrs by SRB assay; format: functional; conditions: SK-MEL-28, 24 h, read-out: Activity
[7] = Cytotoxicity against human SW620 cells after 24 hrs by SRB assay; format: functional; conditions: SW-620, 24 h
[8] = system: SK-MEL-5; experiment: Cytotoxicity against human SK-MEL-5 cells assessed as cell growth at 10^-5 M after 24 hrs by SRB assay; format: functional; conditions: SK-MEL-5, 24 h, read-out: Activity
[9] = system: 786-0; experiment: Cytotoxicity against human 786-0 cells after 24 hrs by SRB assay; format: functional, cell-based; conditions: 786-0, 24 h
[10] = Cytotoxicity against human SF268 cells assessed as cell growth at 10^-5 M after 24 hrs by SRB assay; format: functional; conditions: SF-268, 24 h, read-out: Activity
[11] = system: CCRF-CEM; experiment: Cytotoxicity against human CCRF-CEM cells assessed as cell growth at 10^-7 M after 24 hrs by SRB assay; format: functional; conditions: read-out: Activity
[12] = Cytotoxicity against human NCI-ADR-RES cells assessed as cell growth at 10^-5 M after 24 hrs by SRB assay; format: functional; conditions: read-out: Activity
[13] = system: SK-MEL-28; experiment: Cytotoxicity against human SK-MEL-28 cells assessed as cell growth at 10^-6 M after 24 hrs by SRB assay; format: functional; conditions: SK-MEL-28, 24 h, read-out: Activity
[14] = system: NCI-H460; experiment: Cytotoxicity against human NCI-H460 cells assessed as cell growth at 10^-5 M after 24 hrs by SRB assay; format: functional; conditions: NCI-H460, 24 h, read-out: Activity
[15] = system: MDA-MB-435; experiment: Cytotoxicity against human MDA-MB-435 cells assessed as cell growth at 10^-6 M after 24 hrs by SRB assay; format: functional; conditions: MDA-MB-435, 24 h, read-out: Activity
[16] = Cytotoxicity against human RXF393 cells after 24 hrs by SRB assay; format: functional, cell-based; conditions: RXF 393, 24 h
[17] = Cytotoxicity against human RPMI8226 cells assessed as cell growth at 10^-4 M after 24 hrs by SRB assay; format: functional; conditions: RPMI-8226, 24 h, read-out: Activity
[18] = Cytotoxicity against human UACC62 cells assessed as cell growth at 10^-8 M after 24 hrs by SRB assay; format: functional; conditions: UACC-62, 24 h, read-out: Activity
[19] = Cytotoxicity against human HCT116 cells assessed as cell growth at 10^-7 M after 24 hrs by SRB assay; format: functional; conditions: HCT-116, 24 h, read-out: Activity
[20] = Cytotoxicity against human BT549 cells assessed as cell growth at 10^-4 M after 24 hrs by SRB assay; format: functional; conditions: BT-549, 24 h, read-out: Activity
[21] = Cytotoxicity against human HCT116 cells assessed as cell growth at 10^-4 M after 24 hrs by SRB assay; format: functional; conditions: HCT-116, 24 h, read-out: Activity
[22] = Cytotoxicity against human OVCAR5 cells assessed as cell growth at 10^-6 M after 24 hrs by SRB assay; format: functional; conditions: OVCAR-5, 24 h, read-out: Activity
[23] = system: SK-MEL-2; experiment: Cytotoxicity against human SK-MEL-2 cells assessed as cell growth at 10^-8 M after 24 hrs by SRB assay; format: functional; conditions: SK-MEL-2, 24 h, read-out: Activity
[24] = Cytotoxicity against human OVCAR4 cells assessed as cell growth at 10^-5 M after 24 hrs by SRB assay; format: functional; conditions: OVCAR-4, 24 h, read-out: Activity
[25] = Cytotoxicity against human LOXIMVI cells assessed as cell growth at 10^-4 M after 24 hrs by SRB assay; format: functional; conditions: LOX IMVI, read-out: Activity
[26] = system: 786-0; experiment: Cytotoxicity against human 786-0 cells assessed as cell growth at 10^-8 M after 24 hrs by SRB assay; format: functional; conditions: 786-0, 24 h, read-out: Activity
[27] = Cytotoxicity against human UACC257 cells assessed as cell growth at 10^-8 M after 24 hrs by SRB assay; format: functional; conditions: UACC-257, 24 h, read-out: Activity
[28] = Cytotoxicity against human PC3 cells assessed as cell growth at 10^-4 M after 24 hrs by SRB assay; format: functional; conditions: PC-3, 24 h, read-out: Activity
[29] = Cytotoxicity against human DU145 cells assessed as cell growth at 10^-8 M after 24 hrs by SRB assay; format: functional; conditions: DU-145, 24 h, read-out: Activity
[30] = Cytotoxicity against human SF539 cells after 24 hrs by SRB assay; format: functional, cell-based; conditions: SF-539, 24 h
[31] = Cytotoxicity against human UACC257 cells assessed as cell growth at 10^-4 M after 24 hrs by SRB assay; format: functional; conditions: UACC-257, 24 h, read-out: Activity
[32] = system: 786-0; experiment: Cytotoxicity against human 786-0 cells assessed as cell growth at 10^-6 M after 24 hrs by SRB assay; format: functional; conditions: 786-0, 24 h, read-out: Activity
[33] = Cytotoxicity against human OVCAR3 cells assessed as cell growth at 10^-7 M after 24 hrs by SRB assay; format: functional; conditions: OVCAR-3, 24 h, read-out: Activity
[34] = Cytotoxicity against human PC3 cells assessed as cell growth at 10^-6 M after 24 hrs by SRB assay; format: functional; conditions: PC-3, 24 h, read-out: Activity
[35] = system: SK-MEL-2; experiment: Cytotoxicity against human SK-MEL-2 cells assessed as cell growth at 10^-4 M after 24 hrs by SRB assay; format: functional; conditions: SK-MEL-2, 24 h, read-out: Activity
[36] = read-out: LC50 (the source's name)
[37] = read-out: pLC50 (the source's name) (converted)

With `O=C(Nc1cc(-c2cccnc2)nc(NCCCN2CCOCC2)n1)c1cc(Br)cc(C(F)(F)F)c1` the GI50 ([1]; read-out: GI50) was 6.33 µM, the CC50 [1, 36] was 69.1 µM and the TGI ([1]; read-out: TGI) was 23.5 µM. It also gave a GI50 ([1]; read-out: pGI50 (converted)) of 6.31 µM, a CC50 [1, 37] of 69.2 µM and a TGI ([1]; read-out: pTGI (converted)) of 23.4 µM. The growth at 1 µM [2] was 102%, the growth at 0.1 µM [3] was 92% and the growth at 100 µM [4] was -90%. The growth at 0.1 µM [5] was 90%, the growth at 10 µM [6] was -75% and the GI50 ([7]; read-out: GI50) was 2250 nM. The CC50 [7, 36] was 20.1 µM, the TGI ([7]; read-out: TGI) was 5.48 µM and the GI50 ([7]; read-out: pGI50 (converted)) was 2240 nM. The CC50 [7, 37] was 20 µM, the TGI ([7]; read-out: pTGI (converted)) was 5.62 µM and the growth at 10 µM [8] was -98%. The pIC50 [9] was 5.81, the GI50 ([9]; read-out: GI50) was 1550 nM and the CC50 [9, 36] was 6.47 µM. The TGI ([9]; read-out: TGI) was 3.17 µM, the GI50 ([9]; read-out: pGI50 (converted)) was 1550 nM and the CC50 [9, 37] was 6.46 µM. It also gave a TGI ([9]; read-out: pTGI (converted)) of 3.16 µM, a growth at 10 µM [10] of 1% and a growth at 0.1 µM [11] of 105%. It also gave a growth at 10 µM [12] of -4%, a growth at 1 µM [13] of 89% and a growth at 10 µM [14] of -5%. The growth at 1 µM [15] was 90%, the pIC50 [16] was 5.74 and the GI50 ([16]; read-out: GI50) was 1800 nM. It also gave a CC50 [16, 36] of 7.23 µM, a TGI ([16]; read-out: TGI) of 3.61 µM and a GI50 ([16]; read-out: pGI50 (converted)) of 1820 nM. The CC50 [16, 37] was 7.24 µM, the TGI ([16]; read-out: pTGI (converted)) was 3.63 µM and the growth at 100 µM [17] was -24%. For the same compound, the growth at 0.01 µM [18] was 89%, the growth at 0.1 µM [19] was 107% and the growth at 100 µM [20] was -86%. It also gave a growth at 100 µM [21] of -88%, a growth at 1 µM [22] of 92% and a growth at 0.01 µM [23] of 109%. For the same compound, the growth at 10 µM [24] was 18%, the growth at 100 µM [25] was -93% and the growth at 0.01 µM [26] was 93%. For the same compound, the growth at 0.01 µM [27] was 92%, the growth at 100 µM [28] was -93% and the growth at 0.01 µM [29] was 103%. It also gave a GI50 ([30]; read-out: GI50) of 1670 nM, a CC50 [30, 36] of 7.2 µM and a TGI ([30]; read-out: TGI) of 3.47 µM. It also gave a GI50 ([30]; read-out: pGI50 (converted)) of 1660 nM, a CC50 [30, 37] of 7.24 µM and a TGI ([30]; read-out: pTGI (converted)) of 3.47 µM. The growth at 100 µM [31] was -93%, the growth at 1 µM [32] was 81% and the growth at 0.1 µM [33] was 102%. It also gave a growth at 1 µM [34] of 92% and a growth at 100 µM [35] of -89%.

— ChEMBL document CHEMBL3774345, “Synthesis of new diarylamides with pyrimidinyl pyridine scaffold and evaluation of their anti-proliferative effect on cancer cell lines” (Bioorg Med Chem Lett, 2016)
